Consider 27 compounds from ChEMBL document CHEMBL5715943, “Design and synthesis of potent and selective azaindole-based Rho kinase (ROCK) inhibitors” (ChemMedChem, 2008).

The term IC50 denotes the point on the concentration scale where inhibition reaches its midpoint. A word on the clearance: it is a measure of how efficiently the substance is removed, as volume per time. In general, half-life refers to the time in which the quantity being followed falls by half. For orientation: bioavailability means dose-corrected exposure relative to a reference, in per cent. Lower therefore signals little systemic uptake.

Structures are written as SMILES.

Series [1] has as its target Rho-associated protein kinase 2 (Homo sapiens, UniProt O75116). The series can be described thus: Inhibition of His-tagged human ROCK2 expressed in Sf9 cells pre-incubated for 10 mins before S6 peptide substrate addition in presence of [33P]ATP and measured after 20 mins by scintillation counting.
The test system of a further series is Saphenous artery. The series can be described thus: Vasorelaxant activity in isolated Chinchilla rabbit saphenous artery vessels assessed as inhibition of phenylephrine-mediated contraction. The format is functional, tissue-based. To be noted: Oryctolagus cuniculus.
The conditions of series [2]: buffer.
In series [3] the test system is Rattus norvegicus. Briefly: Anti-hypertensive effect in anaesthetized Wistar rat assessed as blood-pressure-lowering effect at 3 mg/kg, iv relative to control. The class given is functional.
A short description of series [4]: in vivo. To be noted: Wistar, rat, iv, 0.5 mg/kg.
The nature of series [5]: in vivo. To be noted: Wistar, rat, iv, 0.5 mg/kg. This is another data set of the same source.
Series [6] in a line: in vivo. To be noted: Wistar, rat, po, 1 mg/kg.
The subject of series [7] is Rattus norvegicus. Briefly: Anti-hypertensive effect in anaesthetized Wistar rat assessed as blood-pressure-lowering effect at 0.3 mg/kg, iv relative to control. The format is functional.
In series [8] the target is Myosin light chain kinase, smooth muscle (Homo sapiens, UniProt Q15746). Briefly: Inhibition of MYLK (unknown origin).
Sequence of Myosin light chain kinase, smooth muscle (Q15746 whole entry): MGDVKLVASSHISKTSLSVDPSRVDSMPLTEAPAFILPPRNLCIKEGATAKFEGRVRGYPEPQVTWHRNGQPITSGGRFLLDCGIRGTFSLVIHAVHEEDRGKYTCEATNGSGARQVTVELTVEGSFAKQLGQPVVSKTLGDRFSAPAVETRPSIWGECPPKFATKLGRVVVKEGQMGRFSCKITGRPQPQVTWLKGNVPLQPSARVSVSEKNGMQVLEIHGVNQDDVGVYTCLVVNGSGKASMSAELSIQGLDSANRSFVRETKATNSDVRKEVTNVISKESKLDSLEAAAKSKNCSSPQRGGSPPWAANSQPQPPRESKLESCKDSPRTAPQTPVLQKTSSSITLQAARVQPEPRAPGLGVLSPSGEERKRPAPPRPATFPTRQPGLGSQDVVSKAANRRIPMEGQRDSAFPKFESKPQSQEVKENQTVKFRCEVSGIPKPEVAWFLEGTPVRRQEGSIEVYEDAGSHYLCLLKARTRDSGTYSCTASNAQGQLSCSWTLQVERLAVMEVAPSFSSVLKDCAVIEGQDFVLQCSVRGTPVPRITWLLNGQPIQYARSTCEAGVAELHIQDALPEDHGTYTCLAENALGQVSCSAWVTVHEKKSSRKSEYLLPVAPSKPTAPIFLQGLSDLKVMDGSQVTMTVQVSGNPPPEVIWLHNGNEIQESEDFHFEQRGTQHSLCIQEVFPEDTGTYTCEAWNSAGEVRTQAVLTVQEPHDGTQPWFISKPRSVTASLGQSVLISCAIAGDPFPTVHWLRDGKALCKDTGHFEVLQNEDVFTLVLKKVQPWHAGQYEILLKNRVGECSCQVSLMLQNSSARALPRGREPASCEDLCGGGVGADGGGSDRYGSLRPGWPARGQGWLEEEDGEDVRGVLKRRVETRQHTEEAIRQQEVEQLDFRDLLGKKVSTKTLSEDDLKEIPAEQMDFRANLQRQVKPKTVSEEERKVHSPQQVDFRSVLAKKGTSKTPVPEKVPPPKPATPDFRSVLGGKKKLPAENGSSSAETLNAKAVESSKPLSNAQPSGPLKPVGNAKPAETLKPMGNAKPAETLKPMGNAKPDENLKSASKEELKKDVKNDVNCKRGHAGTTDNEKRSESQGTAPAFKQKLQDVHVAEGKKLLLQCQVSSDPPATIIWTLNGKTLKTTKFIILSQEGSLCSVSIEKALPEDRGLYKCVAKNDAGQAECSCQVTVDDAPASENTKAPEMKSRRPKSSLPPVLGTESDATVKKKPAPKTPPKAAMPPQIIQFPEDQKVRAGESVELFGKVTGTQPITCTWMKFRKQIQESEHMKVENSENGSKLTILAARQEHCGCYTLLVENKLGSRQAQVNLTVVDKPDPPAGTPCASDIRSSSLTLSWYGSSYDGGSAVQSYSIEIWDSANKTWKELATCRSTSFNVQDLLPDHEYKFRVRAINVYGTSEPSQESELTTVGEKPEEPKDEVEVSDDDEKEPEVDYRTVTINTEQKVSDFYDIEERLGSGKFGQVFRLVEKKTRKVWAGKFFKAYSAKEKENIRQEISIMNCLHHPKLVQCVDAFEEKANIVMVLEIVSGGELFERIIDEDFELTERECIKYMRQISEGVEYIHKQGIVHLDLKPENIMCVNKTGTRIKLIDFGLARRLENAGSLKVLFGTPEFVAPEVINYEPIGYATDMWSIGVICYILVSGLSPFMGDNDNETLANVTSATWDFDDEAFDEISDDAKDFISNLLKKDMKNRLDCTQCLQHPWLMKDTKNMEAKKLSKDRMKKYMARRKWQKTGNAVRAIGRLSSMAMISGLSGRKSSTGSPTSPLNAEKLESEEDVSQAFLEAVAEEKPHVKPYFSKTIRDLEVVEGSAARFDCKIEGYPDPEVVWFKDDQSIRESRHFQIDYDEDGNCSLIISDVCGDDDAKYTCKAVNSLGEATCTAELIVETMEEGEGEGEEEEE
Series [9] deals with T1, Tyrosine-protein kinase receptor UFO (Homo sapiens, UniProt P30530).
T1 sequence (P30530 whole entry): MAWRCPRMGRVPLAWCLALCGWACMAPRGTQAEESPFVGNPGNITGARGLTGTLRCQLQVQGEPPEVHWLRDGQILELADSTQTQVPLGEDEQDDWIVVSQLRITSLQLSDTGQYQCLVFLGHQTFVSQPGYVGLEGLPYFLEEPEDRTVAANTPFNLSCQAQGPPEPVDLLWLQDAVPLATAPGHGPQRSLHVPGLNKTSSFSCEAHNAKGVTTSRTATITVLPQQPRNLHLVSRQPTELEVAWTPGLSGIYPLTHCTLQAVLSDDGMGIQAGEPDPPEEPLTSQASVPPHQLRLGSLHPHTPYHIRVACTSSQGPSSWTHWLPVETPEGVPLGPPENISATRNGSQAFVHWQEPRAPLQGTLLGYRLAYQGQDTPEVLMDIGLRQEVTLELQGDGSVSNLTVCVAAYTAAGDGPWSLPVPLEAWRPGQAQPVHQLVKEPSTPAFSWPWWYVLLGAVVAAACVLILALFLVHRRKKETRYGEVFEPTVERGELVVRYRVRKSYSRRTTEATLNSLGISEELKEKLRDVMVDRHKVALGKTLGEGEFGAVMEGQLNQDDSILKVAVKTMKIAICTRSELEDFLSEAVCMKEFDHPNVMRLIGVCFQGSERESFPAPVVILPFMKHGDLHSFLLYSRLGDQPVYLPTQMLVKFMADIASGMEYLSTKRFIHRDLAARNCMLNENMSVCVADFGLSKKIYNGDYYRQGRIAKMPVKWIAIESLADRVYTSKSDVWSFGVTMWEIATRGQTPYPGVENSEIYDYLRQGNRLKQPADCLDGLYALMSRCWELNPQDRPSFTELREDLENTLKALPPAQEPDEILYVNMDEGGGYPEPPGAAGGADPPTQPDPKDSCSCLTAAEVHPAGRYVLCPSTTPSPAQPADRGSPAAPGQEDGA
Briefly: Inhibition of human AXL.

For series [10], the target named is RAF proto-oncogene serine/threonine-protein kinase (Homo sapiens, UniProt P04049). The series can be described thus: Inhibition of human c-RAF.
Sequence of RAF proto-oncogene serine/threonine-protein kinase (P04049 whole entry): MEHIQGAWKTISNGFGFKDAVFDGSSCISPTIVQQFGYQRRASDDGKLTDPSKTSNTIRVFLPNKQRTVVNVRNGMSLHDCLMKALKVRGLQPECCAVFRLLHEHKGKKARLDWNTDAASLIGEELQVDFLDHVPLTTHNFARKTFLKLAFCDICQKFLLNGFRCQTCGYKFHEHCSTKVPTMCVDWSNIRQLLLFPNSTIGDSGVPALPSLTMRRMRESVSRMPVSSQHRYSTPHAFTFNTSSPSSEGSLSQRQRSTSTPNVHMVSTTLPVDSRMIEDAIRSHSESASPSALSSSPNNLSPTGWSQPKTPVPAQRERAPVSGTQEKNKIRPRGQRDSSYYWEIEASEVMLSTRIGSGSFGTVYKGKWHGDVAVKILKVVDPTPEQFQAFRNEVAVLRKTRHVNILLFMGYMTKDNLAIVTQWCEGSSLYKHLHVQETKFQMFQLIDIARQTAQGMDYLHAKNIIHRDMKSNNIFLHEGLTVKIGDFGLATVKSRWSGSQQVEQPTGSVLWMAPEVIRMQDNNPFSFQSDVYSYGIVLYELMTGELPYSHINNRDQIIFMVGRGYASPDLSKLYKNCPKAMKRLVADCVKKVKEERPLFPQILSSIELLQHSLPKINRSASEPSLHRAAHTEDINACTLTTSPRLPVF
For series [11], the target named is Voltage-gated L-type calcium channel (Homo sapiens, UniProt Q13936+Q13698+Q01668+O60840). Briefly: Inhibition of L-type calcium channel (unknown origin). The format is protein assay.
The nature of series [12]: Inhibition of sodium channel (unknown origin). Also on record: species or system Homo sapiens.
The target of series [13] is Voltage-gated inwardly rectifying potassium channel KCNH2 (Homo sapiens, UniProt Q12809). Briefly: Inhibition of human ERG channel assessed as reduction in K+ current by whole-cell voltage-clamp assay. The class given is toxicity.
Sequence of Voltage-gated inwardly rectifying potassium channel KCNH2 (Q12809 whole entry): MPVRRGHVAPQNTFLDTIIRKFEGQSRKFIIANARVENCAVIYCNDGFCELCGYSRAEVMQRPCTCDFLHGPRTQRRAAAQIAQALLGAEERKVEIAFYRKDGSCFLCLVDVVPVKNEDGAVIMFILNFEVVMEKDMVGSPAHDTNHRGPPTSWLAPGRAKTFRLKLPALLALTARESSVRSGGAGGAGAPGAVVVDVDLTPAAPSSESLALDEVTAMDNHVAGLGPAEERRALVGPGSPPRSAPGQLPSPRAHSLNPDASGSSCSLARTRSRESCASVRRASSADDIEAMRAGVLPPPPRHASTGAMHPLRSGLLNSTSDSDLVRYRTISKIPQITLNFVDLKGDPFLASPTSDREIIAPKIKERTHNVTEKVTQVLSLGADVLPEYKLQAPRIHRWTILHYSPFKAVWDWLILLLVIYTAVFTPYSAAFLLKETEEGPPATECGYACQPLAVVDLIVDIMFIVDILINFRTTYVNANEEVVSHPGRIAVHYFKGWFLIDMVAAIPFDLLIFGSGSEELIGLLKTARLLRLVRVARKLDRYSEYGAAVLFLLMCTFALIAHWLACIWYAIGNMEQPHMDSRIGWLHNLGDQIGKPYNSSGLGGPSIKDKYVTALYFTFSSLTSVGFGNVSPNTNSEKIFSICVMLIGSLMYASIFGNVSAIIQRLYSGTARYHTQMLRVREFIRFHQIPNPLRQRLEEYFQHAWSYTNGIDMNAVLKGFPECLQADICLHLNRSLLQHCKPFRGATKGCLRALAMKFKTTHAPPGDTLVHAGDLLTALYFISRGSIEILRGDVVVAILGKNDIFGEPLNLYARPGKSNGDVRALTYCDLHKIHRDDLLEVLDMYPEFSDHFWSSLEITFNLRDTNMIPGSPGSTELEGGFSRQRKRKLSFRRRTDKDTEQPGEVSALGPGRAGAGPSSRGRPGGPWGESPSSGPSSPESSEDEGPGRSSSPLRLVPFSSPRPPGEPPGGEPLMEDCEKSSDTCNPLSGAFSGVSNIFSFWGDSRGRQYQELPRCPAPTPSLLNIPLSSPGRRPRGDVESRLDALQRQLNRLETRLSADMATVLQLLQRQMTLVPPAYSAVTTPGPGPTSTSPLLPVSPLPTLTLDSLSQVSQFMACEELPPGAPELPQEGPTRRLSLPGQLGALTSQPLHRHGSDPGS

Sequence of Rho-associated protein kinase 2 (O75116 whole entry): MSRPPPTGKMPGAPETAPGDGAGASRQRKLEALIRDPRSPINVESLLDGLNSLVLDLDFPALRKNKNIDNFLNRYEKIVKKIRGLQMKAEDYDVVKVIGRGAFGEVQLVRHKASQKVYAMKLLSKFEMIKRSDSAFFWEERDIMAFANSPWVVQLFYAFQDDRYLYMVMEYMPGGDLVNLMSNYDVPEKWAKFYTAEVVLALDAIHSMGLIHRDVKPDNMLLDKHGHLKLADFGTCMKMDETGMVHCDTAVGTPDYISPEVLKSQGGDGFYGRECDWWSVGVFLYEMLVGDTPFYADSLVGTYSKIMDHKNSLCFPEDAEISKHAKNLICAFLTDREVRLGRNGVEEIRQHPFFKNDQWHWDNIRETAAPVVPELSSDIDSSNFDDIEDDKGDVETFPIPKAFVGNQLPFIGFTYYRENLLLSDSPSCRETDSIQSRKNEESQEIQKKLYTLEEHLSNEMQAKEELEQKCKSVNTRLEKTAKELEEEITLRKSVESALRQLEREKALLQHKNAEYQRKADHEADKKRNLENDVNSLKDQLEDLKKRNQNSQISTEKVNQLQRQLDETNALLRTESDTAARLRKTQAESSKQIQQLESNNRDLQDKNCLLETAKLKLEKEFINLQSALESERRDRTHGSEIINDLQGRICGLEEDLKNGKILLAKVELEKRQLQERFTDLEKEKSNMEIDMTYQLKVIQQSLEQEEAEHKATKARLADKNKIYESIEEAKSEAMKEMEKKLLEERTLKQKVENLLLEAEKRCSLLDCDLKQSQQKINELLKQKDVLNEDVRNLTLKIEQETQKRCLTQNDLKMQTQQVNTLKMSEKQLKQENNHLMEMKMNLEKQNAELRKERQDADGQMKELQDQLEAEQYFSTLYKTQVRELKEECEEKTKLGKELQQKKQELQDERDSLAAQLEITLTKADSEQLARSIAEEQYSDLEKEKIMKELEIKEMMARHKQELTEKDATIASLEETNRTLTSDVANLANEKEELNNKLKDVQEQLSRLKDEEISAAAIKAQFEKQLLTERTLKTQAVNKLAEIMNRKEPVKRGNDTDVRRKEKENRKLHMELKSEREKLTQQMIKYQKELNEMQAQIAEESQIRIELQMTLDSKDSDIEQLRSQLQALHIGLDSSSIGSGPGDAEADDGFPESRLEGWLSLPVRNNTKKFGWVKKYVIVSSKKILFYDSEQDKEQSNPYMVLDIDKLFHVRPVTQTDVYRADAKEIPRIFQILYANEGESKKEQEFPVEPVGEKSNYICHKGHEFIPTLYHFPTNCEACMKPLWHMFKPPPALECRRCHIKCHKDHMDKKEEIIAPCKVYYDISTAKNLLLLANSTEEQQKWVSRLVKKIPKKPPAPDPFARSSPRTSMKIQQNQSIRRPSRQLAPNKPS

For the compound `N#Cc1c[nH]c2nccc(Oc3c(F)cc(Nc4ccnc(N)n4)cc3F)c12`, the figures for the IC50 (in [1]; in the series on Saphenous artery) were 0.9 nM and 20 nM, respectively. In addition, the solubility entry in series [2] is “Insoluble”.
Consider `Nc1nc(Nc2ccc(Oc3ccnc4[nH]ccc34)c(F)c2)cc(-c2ccncc2)n1`, for which the IC50 in the series on Saphenous artery came out at 270 nM. In addition, the Activity in the series on Rattus norvegicus [3] is listed as 65 mmHg. The compound further had a clearance in the series “in vivo [4]” of 88.3 mL/min/kg. In the series “in vivo [5]”, this compound had a half-life of 18 min. This compound also showed a bioavailability in “in vivo [6]” of 18%.
For `Cc1c[nH]c2nccc(Oc3ccc(Nc4cc(Cl)nc(N)n4)cc3F)c12`, the IC50 in the series with Saphenous artery came out at 100 nM.
Same read-out and setting: for `Nc1nc(Nc2ccc(Oc3ccnc4[nH]ccc34)c(F)c2)cc(C2CCCNC2)n1` (centres undefined) the value was 230 nM.
On to `Cc1cc(Nc2ccc(Sc3ccncc3)c(F)c2)nc(N)n1`, for which, in series [1], the IC50 stood at 90 nM.
`Nc1nc(Nc2ccc(Sc3ccncc3)c(F)c2)cc(-c2ccncc2)n1`: the half-maximal inhibitory concentration (IC50) in [1] stood at 11 nM; with Saphenous artery, 500 nM.
With `Nc1nc(Cl)cc(Nc2ccc(Oc3ccnc4[nH]ccc34)c(F)c2)n1`, the IC50 was determined as 9 nM in series [1] and 1100 nM with Saphenous artery.
For `Nc1nccc(Nc2ccc(Oc3ccnc4[nH]ccc34)c(F)c2)n1`, in that order: 17 nM and 1500 nM.
The corresponding values for `Cc1cc(Nc2ccc(Oc3ccnc4[nH]ccc34)c(F)c2)nc(N)n1` are 11 nM and 1700 nM.
The corresponding values for `Nc1nc(Nc2ccc(Oc3ccnc4[nH]ccc34)c(F)c2)cc(-c2ccccn2)n1` are 7 nM and 460 nM.
`Nc1nc(Nc2ccc(Oc3ccnc4[nH]ccc34)c(F)c2)cc(-c2cccnc2)n1`: the IC50 in [1] is 10 nM; with Saphenous artery, 370 nM.
Turning to `Nc1nc(Nc2ccc(Oc3cccc4[nH]ncc34)c(F)c2)cc(-c2ccncc2)n1`, the IC50 in series [1] was found to be 380 nM.
Consider `Cc1c[nH]c2nccc(Oc3c(F)cc(Nc4ccnc(N)n4)cc3F)c12`, for which the IC50 in [1] is 2 nM; in the series with Saphenous artery, 56 nM. This compound also had a clearance in “in vivo [4]” of 26.7 mL/min/kg. Further, the half-life in “in vivo [5]” is 54 min.
As for `CCc1c[nH]c2nccc(Oc3ccc(Nc4cc(-c5ccncc5)nc(N)n4)cc3F)c12`, the results for the IC50 (in [1]; in the series on Saphenous artery) were 8 nM and 1200 nM, respectively.
The corresponding values for `Nc1nc(Nc2ccc(Oc3ccnc4[nH]ccc34)c(F)c2)cc(N2CCNCC2)n1` are 6 nM and 410 nM.
Turning to `Nc1nc(Nc2cc(F)c(Oc3ccnc4[nH]cc(Cl)c34)c(F)c2)cc(C(F)(F)F)n1`, the half-inhibitory concentration (IC50) in series [1] worked out at 2 nM; in the series with Saphenous artery, 82 nM. Further, in series [2], the solubility entry is on record as “Insoluble”.
As for `Nc1nc(Nc2ccc(Oc3cccc4[nH]ccc34)c(F)c2)cc(-c2ccncc2)n1`, the IC50 in series [1] is > 3000 nM.
Same read-out and setting: in the case of `Nc1nc(Nc2ccc(Oc3ccnc4[nH]ncc34)c(F)c2)cc(-c2ccncc2)n1` it was > 3000 nM.
For the compound `Nc1nc(Nc2ccc(Oc3ccnc4[nH]ccc34)c(F)c2)cc(C(F)(F)F)n1`, the IC50 was found to be 7 nM in series [1] and 710 nM with Saphenous artery.
For the compound `Cc1c[nH]c2nccc(Oc3ccc(Nc4ccnc(N)n4)cc3F)c12`, the IC50 turned out to be 4 nM in series [1] and 84 nM with Saphenous artery. Further, in the series “in vivo [4]”, the clearance is 35 mL/min/kg. The compound further showed a half-life in the series “in vivo [5]” of 30 min.
For the compound `Nc1nc(Nc2ccc(Oc3cccc4cnccc34)c(F)c2)cc(-c2ccncc2)n1`, the IC50 in series [1] was 200 nM.
As to `Nc1nc(Nc2ccc(Oc3ccnc4[nH]ccc34)c(F)c2)cc(C2CCNCC2)n1`, the figures for the IC50 (in series [1]; in the series with Saphenous artery) were 2 nM and 570 nM, respectively.
On to `Cc1c[nH]c2nccc(Oc3ccc(Nc4cc(-c5ccncc5)nc(N)n4)cc3F)c12`, for which the values for the 50% inhibitory concentration (IC50) (in [1]; with Saphenous artery) were 3 nM and 89 nM, respectively. The Activity in the series with Rattus norvegicus [3] amounted to 70 mmHg.
For the compound `Nc1nc(Nc2ccc(Oc3ccnc4[nH]ccc34)c(F)c2)cc(N2CCCC2)n1`, the results for the IC50 (in series [1]; in the series on Saphenous artery) were 16 nM and 940 nM, respectively.
Consider `Cc1cc(Nc2ccc(Sc3ccncc3)cc2)nc(N)n1`, for which the half-maximal inhibitory concentration (IC50) in series [1] was found to be 800 nM.
Turning to `Cc1n[nH]c2cccc(Oc3ccc(Nc4cc(-c5ccncc5)nc(N)n4)cc3F)c12`, in the series with Saphenous artery, the IC50 is 6800 nM.
Take `Cc1c[nH]c2nccc(Oc3c(F)cc(Nc4cc(Cl)nc(N)n4)cc3F)c12` [BAY-549]: the IC50 in the series on Saphenous artery was found to be 65 nM; in series [8], 7400 nM; in series [9], 1000 nM; in [10], 1000 nM; in series [11], 6700 nM; in series [12], 6800 nM. Further, the Activity in the series on Rattus norvegicus [7] was 35 mmHg. The “inhibition (INH)” value in [13] is given as “Not Active”. In the series “in vivo [4]”, this compound gave a clearance of 28.3 mL/min/kg. Moreover, the half-life in the series “in vivo [5]” was 72 min. Moreover, in “in vivo [6]”, the bioavailability was 48%.
